In patent publication US10000469B2, “Heat shock protein 70 (hsp-70) receptor ligands” (Duke University, priority 2014, dated 2018):
Each block holds one compound with its values, some of them ahead of it.

What was measured:
[1] = target: T1, GFP-Hsp70i (Homo sapiens, UniProt P0DMV8); assay: FLECS elution of GFP-Hsp70i from γ-phosphate-linked ATP resin; type: binding
T1 construct: host or cells: HEK 293T
Procedure: (§1) FLECS Screen: A pEGFP-tagged Hsp70i was (plasmid 15215, Addgene, Cambridge, Mass.) used in the FLECS assay and was originally cloned according to [Zeng et al. (2004). Hsp70 dynamics in vivo: effect of heat shock and protein aggregation. Journal of cell science 117, 4991-5000]. ATP used in the assay was purchased from Sigma (St. Louis, Mo.) and a 200 mM stock was prepared with low salt buffer (150 mM NaCl, 25 mM Tris, pH 7.5, 60 mM MgCl2). The γ-phosphate ATP sepharose was synthesized as previously described and stored in low salt buffer [Haystead et al. (1993). Gamma-phosphate-linked ATP-sepharose for the affinity purification of protein kinases. Rapid purification to homogeneity of skeletal muscle mitogen-activated protein kinase kinase. European journal of biochemistry/FEBS 214, 459-467]. FuGENE 6 transfection reagent (Roche, Mannheim, Germany) was used for transfection of GFP-Hsp70i into HEK 293T cells, following the manufacturer protocol. The transfection ensued for 48 hours, upon which time the cells were harvested and lysed in cell lysis buffer (150 mM NaCl, 50 mM Tris, pH 7.5, 1% Triton X-100, 1 mM EDTA, 1 mM DTT, and 1 tablet Complete Mini protease inhibitor (Roche)). Cell lysates were stored at −80° C. until further use. Upon binding the resin lysates were washed 3× with high stringency wash buffer (1 M NaCl, 25 mM Tris, pH 7.5, 60 mM MgCl2, 1 mM DTT) and 3× with low stringency wash buffer (150 mM NaCl, 25 mM Tris, pH 7.5, 60 mM MgCl2, 1 mM DTT). […]
Assembly of a focused library, consisting of 3379 purine like compounds, was described previously [Carlson et al. (2013). Fluorescence Linked Enzyme Chemoproteomic Strategy for Discovery of a Potent and Selective DAPK1 and ZIPK Inhibitor. […] The lysates were eluted from the filter plate onto a catch plate by centrifugation and the fluorescence of the eluates was measured. […] Next, the presence of GFP-Hsp70i in the eluates from the 197 primary hits was determined by Western blot. […]

[2] = target: Hsp70i (Homo sapiens, UniProt P0DMV8); assay: Thermofluor assay, purified Hsp70i; type: binding; design: Full length Hsp70 (black arrow) and tryptic fragments (blue arrows); His tag (cleaved yes); made in house; details: for effect on Tm of Hsp70i: compound alone; for increase of the Tm of Hsp70i: nucleotide alone, FIG. 4E/4G
Hsp70i, sequence (P0DMV8 whole entry, the tested form may be a part): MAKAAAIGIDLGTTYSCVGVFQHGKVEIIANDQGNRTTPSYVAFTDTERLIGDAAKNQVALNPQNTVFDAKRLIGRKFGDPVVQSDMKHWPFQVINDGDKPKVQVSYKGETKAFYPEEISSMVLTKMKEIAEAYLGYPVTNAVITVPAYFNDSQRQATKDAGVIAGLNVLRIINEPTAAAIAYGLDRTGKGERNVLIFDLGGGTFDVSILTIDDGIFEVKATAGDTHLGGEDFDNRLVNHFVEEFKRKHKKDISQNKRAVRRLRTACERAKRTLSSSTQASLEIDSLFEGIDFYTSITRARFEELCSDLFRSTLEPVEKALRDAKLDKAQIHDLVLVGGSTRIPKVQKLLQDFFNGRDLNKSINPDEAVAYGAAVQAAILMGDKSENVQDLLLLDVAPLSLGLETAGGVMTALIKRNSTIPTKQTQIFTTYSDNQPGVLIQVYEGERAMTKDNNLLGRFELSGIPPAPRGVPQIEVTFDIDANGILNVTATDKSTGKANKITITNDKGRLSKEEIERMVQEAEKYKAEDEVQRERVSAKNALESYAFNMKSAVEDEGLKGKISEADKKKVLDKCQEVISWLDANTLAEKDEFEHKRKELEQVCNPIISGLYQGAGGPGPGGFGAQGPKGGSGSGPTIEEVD
Procedure: Protein Purification: Plasmids were provided for human HSPA1A, HSPA8, and HSPA1A C306D. Plasmids were transformed in Rosetta competent cells and single colonies were picked from streaked LB/ampicillin/chloramphenicol plates. Cultures were grown at 37° C. for 4-6 hours, were cooled to 15° C. and expression was induced overnight with 200 uM isopropyl 1-thio-β-D-galactopyranoside. Cells were pelleted and resuspended in Ni-lysis buffer (50 mM Na2HPO4, 300 mM NaCl, 10 mM Imidazole, 0.05% Tween-20) supplemented with Complete Mini protease inhibitor tablets (Roche, Mannheim, Germany) and […], and then sonicated. The cells were again pelleted and the supernatant was incubated with complete His-Tag purification resin (Roche, Mannheim, Germany) for 5 hours at 4° C. The resin was washed with Ni-wash buffer (50 mM Na2HPO4, 300 mM NaCl, 20 mM Imidazole, 0.05% Tween-20) and eluted with Ni-elution buffer (50 mM Na2HPO4, 300 mM NaCl, 250 mM Imidazole, 0.05% Tween-20). The elution was then incubated with tobacco etch virus protease overnight at 4° C. The following day the elution was incubated with the γ-phosphate ATP sepharose resin for 30 minutes at 4° C. Next the resin was washed with ATP-wash buffer (50 mMTris-HCl, 60 mM MgCl2, 60 mM KCl, 10 mM Citrate) supplemented with 1 mM DTT and then ATP-wash buffer supplemented with 2 mM ATP was added to the resin to elute the protein. The final elutions were concentrated in Amicon Ultra-15 Centrifugal Filter Units (EMD Millipore, Billerica, Mass.) and buffer exchanged into 25 mM HEPES, 5 mM MgCl2, 10 mM KCl (pH 7.5) and stored at −80° C. until use.
(§2) Thermofluor Assay: SYPRO orange (Molecular Probes, Eugene, Oreg.) was diluted 1:1000 in 25 mM HEPES, 5 mM MgCl2, 10 mM KCl (pH 7.5) and purified Hsp70i, Hsc70, Hsp70i C306, or Hsp90, was then added to a final dilution of 0.04 mg/ml. Where indicated 0.001% or 0.01% Triton X-100 (Sigma) was also added. The indicated compound or DMSO was then added at the specified concentration and each sample was added as 5 replicates to a 384 well plate (BioRad, Hercules, Calif.). A melt curve protocol (25° C. to 90° C., increasing 0.5° C. and a plate reading every 30 seconds) was run on a CFX384 Touch™ Real-Time PCR Detection System (BioRad). To determine the midpoint of the protein unfolding transition or Tm, GraphPad Prisim4 (La Jolla, Calif.) was used to normalize the melt curve and to calculate the first derivate of the melt curve, with the steepest point of the slope being the Tm.

[3] = tested on: Hsp70i, Hsc70, Grp78, Grp75, Hsp90; assay: Elution of HEK 293T cell lysate proteins from the ATP resin (silver stain, Western blot); type: binding; details: Western blot
Procedure: as §1, with “DTT). Next the lysates were transferred to 0.2 μm PVDF filter 96-well plate (Corning, Corning, N.Y.) sitting on top of a black flat-bottomed 96-well catch plate (Corning).” for “DTT).”
HS-72 specifically targets Hsp70i over other members of the Hsp70 superfamily. […] To more thoroughly determine the specificity of HS-72 for Hsp70i, the HEK 293T eluates were also analyzed for other Hsp70 family members Hsc70, Grp78, and Grp75, as well as Hsp90 by Western blot. […] The linker on the resin was cleaved using sodium dithionite and the samples were subjected to SDS-PAGE and analyzed by Western blot, silver stain, and mass spectrometry. […]

[4] = tested on: Her2 and Akt; assay: Degradation assay (Western blot of client proteins); type: cell-based; details: compound alone
Procedure: Western Blotting: SDS-PAGE was carried out using Criterion™ Cell system using pre-casted 4-20% or 4-15% Criterion™ Tris-HCl gels (BioRad, Hercules, Calif.). For Western blotting gels were run at 200V for 1 hour using the PowerPac basic power supply (BioRad, Hercules, Calif.). Next, gels were transferred to nitrocellulose for blotting at 100V for 1 hour (Fisher Scientific, Waltham, Mass.). Nitrocellulose membranes were blocked with 5% dry non-fat milk in phosphate-buffered saline (PBS) with 0.01% Tween-20 for 1 hour at room temperature. Membranes were incubated with primary antibodies (1:1000 dilution) overnight at 4° C. The next day membranes were washed 3× in PBS-Tween, incubated for 1 hour at room temperature with secondary antibodies, and further washed 3× in PBS-Tween. ECL Plus Western blotting reagent (Pierce Biotechnology, Rockford, Ill.) was used to detect antibodies. GFP, Her2, Akt, Hsp70, Hsc70, Grp78, Grp75, and Hsp90 primary antibodies and all associated secondary antibodies were purchased from Cell Signaling Technology (Danvers, Mass.).
Degradation Assay: The specified cells were seeded overnight and then treated with the indicated concentration of compound for 24 hours. The cells were then harvested and subjected to analysis by Western blot.

[5] = tested on: Hsp90; assay: Thermofluor assay, Hsp90; type: binding
Procedure: as §2

[6] = tested on: MCF7; assay: Cell proliferation, MCF7; type: cell-based
Procedure: (§3) Cell Proliferation: Cell proliferation was determined using a Hoechst stain (Sigma, St. Louis, Mo.) to quantify DNA. 5,000 cells of the designated cell line were plated in 96 well plates and treated the next day, designated as time point 0, with the indicated concentration of the specified compound maintained for the duration of the assay. At the indicated time points the media was removed and plated frozen at −80° C. Double distilled H2O was then added and the plates were incubated at 37° C. for 1 hour. After 1 hour the plates were frozen at −80° C. After freezing the plates were thawed and Hoechst stain was diluted 1:1000 in THE buffer (10 mM Tris, 2M NaCl, 1 mM Na2EDTA). The final fluorescence was measured on the Victor X2 plate reader at 355/460 nm, and cell proliferation was determined with the formula: % Cell Proliferation=100×(Sample fluorescence−background fluorescence)/(Control fluorescence−background fluorescence).

[7] = tested on: SkBr3; assay: Cell proliferation, SkBr3; type: cell-based
Procedure: as §3

T1 sequence (P0DMV8 whole entry): as the sequence (P0DMV8 whole entry, the tested form may be a part) above

nucleotide concentration needed to release bound GFP-Hsp70i from the γ-linked ATP resin [1]: mM
increase of the Tm of Hsp70i [2]: 2.5 °C
Structure (SMILES): Nc1ncnc2c1ncn2[C@@H]1O[C@H](COP(=O)(O)OP(=O)(O)O)[C@@H](O)[C@H]1O [ADP, reference compound]
effect on Tm of Hsp70i [2]: increase the Tm of Hsp70i in a dose dependent manner

nucleotide concentration needed to release bound GFP-Hsp70i from the γ-linked ATP resin [1]: low μM
increase of the Tm of Hsp70i [2]: 3 °C
Structure (SMILES): Nc1ncnc2c1ncn2[C@@H]1O[C@H](COP(=O)(O)OP(=O)(O)OP(=O)(O)O)[C@@H](O)[C@H]1O [ATP, reference compound]
Hsp70 family members and Hsp90 eluted from the ATP resin [3]: All the Hsp70 family members and Hsp90 are eluted
effect on Tm of Hsp70i [2]: increase the Tm of Hsp70i in a dose dependent manner

Structure (SMILES): Cc1nn(-c2ccc(C(N)=O)c(N[C@H]3CC[C@H](O)CC3)c2)c2c1C(=O)CC(C)(C)C2 [HS-10, 2-(((1r,4r)-4-hydroxycyclohexyl)amino)-4-(3,6,6-trimethyl-4-oxo-4,5,6,7-tetrahydro-1H-indazol-1-yl)benzamide, reference compound]
Hsp70 protein levels [4]: increased Hsp70 protein levels
Akt and Her2 expression ([4]; BT474 breast cancer cells): induced degradation of Her2 and Akt
increase of the Tm of Hsp90 [5]: 10.5 °C
Tm of Hsp90 in presence of compound ([5]; from 50° C. without compound): 60.5 °C

effect on Tm of Hsp70i [2]: does not change
effect on Tm of the ATP bound Hsp70i ([2]; in presence of ATP): does not change
Structure (SMILES): CCCn1c(NC(=O)[C@@H]2CCCN(c3cnccn3)C2)nc2ccccc21 [HS-71, (R)—N-(1-propyl-1H-benzo[d]imidazol-2-yl)-1-(pyrazin-2-yl)piperidine-3-carboxamide]
cell proliferation ([6]; MCF7, 24 hours): no effect on proliferation
cell proliferation ([6]; MCF7, 48 hours at 25 uM and 50 uM): inhibition
cell proliferation, concentration with significant inhibition ([6]; MCF7, 72 hours): 50 uM alone
cell proliferation ([7]; SkBr3, 48 and 72 hours at 25 uM and 50 uM): inhibition in proliferation
cell proliferation ([7]; SkBr3, 24 hours): no effect on proliferation

effect on Tm of Hsp70i [2]: no dose dependent effect
Structure (SMILES): NS(=O)(=O)C#Cc1ccccc1 [PES, pifithrin-μ, reference compound]

effect on Tm of Hsp70i [2]: increase
Structure (SMILES): N#Cc1ccc(COC[C@H]2O[C@@H](n3c(NCc4ccc(Cl)c(Cl)c4)nc4c(N)ncnc43)[C@H](O)[C@@H]2O)cc1 [VER, VER-15508, reference compound]
